According to patent US6670362B2, “Pyridazine endothelin antagonists” (Pfizer Inc., priority 2000, dated 2003):
Blank lines part the entries; values can stand above or below the molecule they belong to.

What was measured:
[1] = test system: ETA/B receptor; details: hypertensive patients; H. Krum et al., 1998; cited from earlier work
[2] = target: T1, ETB receptors (Homo sapiens, UniProt P24530); details: in man; Hypertension, 1999, 33, 581-585; cited from earlier work
T1 construct: host or cells: man (in vivo)
T1 sequence (P24530 27-442): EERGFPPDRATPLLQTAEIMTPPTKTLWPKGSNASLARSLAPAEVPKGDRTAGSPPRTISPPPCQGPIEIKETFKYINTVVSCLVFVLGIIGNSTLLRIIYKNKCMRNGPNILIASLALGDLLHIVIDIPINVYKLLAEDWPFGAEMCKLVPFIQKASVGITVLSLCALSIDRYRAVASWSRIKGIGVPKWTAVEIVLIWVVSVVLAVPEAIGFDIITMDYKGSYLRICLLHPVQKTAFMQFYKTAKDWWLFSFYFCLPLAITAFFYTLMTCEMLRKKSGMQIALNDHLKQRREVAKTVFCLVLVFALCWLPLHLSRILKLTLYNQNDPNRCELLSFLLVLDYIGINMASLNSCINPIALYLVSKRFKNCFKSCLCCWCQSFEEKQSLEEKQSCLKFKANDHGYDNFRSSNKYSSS

[3] = target: T2, dog ETB (Canis lupus familiaris, UniProt P56497); assay: Dog ETB Binding Assay (125I-IRL-1620, dog cerebellum homogenate)
T2 construct: 50 μg of purified Dog cerebellum homogenate is added; from tissue; host or cells: dog cerebellum homogenate
T2 sequence (P56497 27-442): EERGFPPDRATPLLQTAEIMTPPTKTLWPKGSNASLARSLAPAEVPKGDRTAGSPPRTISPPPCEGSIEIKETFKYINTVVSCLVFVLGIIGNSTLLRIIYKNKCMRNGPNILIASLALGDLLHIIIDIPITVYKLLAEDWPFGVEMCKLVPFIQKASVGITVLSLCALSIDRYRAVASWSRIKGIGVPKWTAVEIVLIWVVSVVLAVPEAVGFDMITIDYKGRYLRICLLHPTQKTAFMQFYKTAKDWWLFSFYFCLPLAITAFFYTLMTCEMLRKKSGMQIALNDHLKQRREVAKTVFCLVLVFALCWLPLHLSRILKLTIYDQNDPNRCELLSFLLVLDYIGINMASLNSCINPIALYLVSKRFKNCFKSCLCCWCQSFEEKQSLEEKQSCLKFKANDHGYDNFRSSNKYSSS
Method: (§1) Competition between test substances and ligands binding to canine endothelin receptors is determined as follows: […] The solution is incubated at 30° C. for 90 minutes. After the incubation, the unbound ligand is separated from receptor bound ligand by filtration with a Brandel cell harvester, followed by 5 washes with buffer (Tris 50 mM, MgCl2 10 mM). Filter papers are counted for radioactivity and the Ki (an IC50 corrected for the dissociation constant and concentration of the ligand added) is determined for the concentration range tested.

[4] = target: T3, dog ETA receptor (Canis lupus familiaris, UniProt Q5KSU9); assay: Dog ETA Binding Assay (125I-PD-151242, dog kidney homogenate)
T3 construct: 100 μg of purified dog kidney homogenate is added; from tissue; host or cells: dog kidney homogenate
T3 sequence (Q5KSU9 21-426): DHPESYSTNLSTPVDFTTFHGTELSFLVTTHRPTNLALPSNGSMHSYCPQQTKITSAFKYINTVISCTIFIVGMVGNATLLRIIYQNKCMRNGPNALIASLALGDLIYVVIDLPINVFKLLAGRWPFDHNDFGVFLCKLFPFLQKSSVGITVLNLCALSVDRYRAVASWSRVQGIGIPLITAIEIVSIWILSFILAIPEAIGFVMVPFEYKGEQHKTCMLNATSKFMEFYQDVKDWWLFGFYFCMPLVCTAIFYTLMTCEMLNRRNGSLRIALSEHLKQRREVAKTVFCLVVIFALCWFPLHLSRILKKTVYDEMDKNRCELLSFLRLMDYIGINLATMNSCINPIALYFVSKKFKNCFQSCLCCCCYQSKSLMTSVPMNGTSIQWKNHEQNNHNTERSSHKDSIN
Method: as §1, with “room temperature” for “30° C.”, “2 hours.” for “90 minutes.”

[5] = test system: neointimal formation; details: S. Douglas et al., Circ. Res., 1994; cited from earlier work

Structure (SMILES): COc1ccccc1Oc1c(NS(=O)(=O)c2ccc(C(C)(C)C)cc2)nc(-c2ncccn2)nc1OCCO [Bosentan]
blood pressure [1]: decreased blood pressure

Structure (SMILES): CCCC[C@@H](NC(=O)[C@@H](Cc1cn(C(=O)OC)c2ccccc12)NC(=O)[C@H](CC(C)(C)C)NC(=O)N1[C@H](C)CCC[C@@H]1C)C(=O)O [BQ-788]
peripheral resistance [2]: increase peripheral resistance

Ki [3]: 132 nM
Ki [4]: 2 nM
Structure (SMILES): COc1ccccc1Oc1c(NS(=O)(=O)CCc2ccccc2)nc(-c2cccnn2)nc1OC [Example 5]

Structure (SMILES): CCCOc1ccc2c(c1)[C@@H](c1ccc(OC)cc1OCC(=O)O)[C@H](C(=O)O)[C@H]2c1ccc2c(c1)OCO2 [SB-209670]
reduction in neointimal formation relative to control animals [5]: 50%
